One data set deals with Haemonchus Contortus. Description: Egg reduction test (eggs per gram of faeces) in experimentally infected sheep. It counts as in vivo. The conditions noted are these: oral (gelatin capsule), 1 sheep, EPG. How it is done: Effectiveness of Forms I-IV of the Depsipeptide of the Formula (I) at Different Oral Dosages Against Haemonchus Contortus in Sheep
Sheep (Merino or Blackhead breed, 25-35 kg of body weight) were experimentally infected with 5000H contortus L3 larvae and treated with the formulated test substance at the end of the prepatency time of the parasite. The test compounds were administered orally (gelatin capsule). The anthelmintic effectiveness of the test substances was measured as a function of reduction of the number of eggs per gram of faeces. To this end, fresh faeces from the test animals were processed according to the McMaster method, modified according to Wetzel, and the number of eggs was determined. The number of eggs was determined at regular intervals before and after the treatment. The anthelmintic effectiveness was defined as follows: 3=>95%, 2=75-95%, 1=50-75% and 0=<50% reduction in eggs (cf. also G. von Samson-Himmelstjerna, A. Harder, T. Schnieder, J. Kalbe, N. Mencke (2000) In vivo activities of the new anthelmintic depsipeptide PF1022A. Parasitol. Res. 86:194-199).

In the next data set the test system is Cooperia Oncophora. Description: Slaughter test (reduction of number of worms in small intestine) in experimentally infected cattle. It counts as in vivo. Conditions: oral, 3 cattle, slaughter 10 days after treatment. How it is done: Effectiveness of Forms I and IV of the Depsipeptide of the Formula (I) at Different Oral Dosages Against Cooperia Oncophora in Cattle
Cattle (breed: Hostein Friesean, species: Bos taurus, calves or young cattle of up to about 200 kg) were experimentally infected with 15,000 C. oncophora L3 larvae. After successful infection (prepatency time about 18-21 days) the number of eggs per gram of faeces was determined 3 times within one week. The animals were then (at day 0=day of the treatment) treated orally (gelatin capsule) or subcutaneously with the formulated test substance. The anthelmintic effectiveness of the test substances was determined as a function of the reduction of the number of worms (in % of the untreated control) in the small intestine after the animals had been slaughtered (10 days after the treatment) (cf. also G. von Samson-Himmelstjerna, A. Harder, T. Schnieder, J. Kalbe, N. Mencke (2000) In vivo activities of the new anthelmintic depsipeptide PF1022A. Parasitol. Res. 86: 194-199.).
The effectiveness in the slaughter experiment is stated in % reduction in worms, compared to the untreated control.

Data set [1] can be described thus: Thermodynamic stability of the crystal forms. It counts as physicochemical. Conditions: comparison of forms I-IV.
Data set [2] is described as follows: Bioavailability of the crystal forms. Conditions: comparison of forms I-IV. It counts as in vivo.

Molecules are shown by their SMILES.

Consider `CC(C)C[C@H]1C(=O)O[C@H](Cc2ccc(N3CCOCC3)cc2)C(=O)N(C)[C@@H](CC(C)C)C(=O)O[C@H](C)C(=O)N(C)[C@@H](CC(C)C)C(=O)O[C@H](Cc2ccc(N3CCOCC3)cc2)C(=O)N(C)[C@@H](CC(C)C)C(=O)O[C@H](C)C(=O)N1C` [Form II], for which the “Effectiveness (reduction of eggs per gram of faeces)” value with Haemonchus Contortus (dosage 0.1 mg/kg, listed as II) is listed as 0 (1 Sheep, EPG) (0 = effectiveness ≦ 50 %); with Haemonchus Contortus (dosage 0.5 mg/kg, listed as II) it was 0 (1 Sheep, EPG) (0 = effectiveness ≦ 50 %).

On to `CC(C)C[C@H]1C(=O)O[C@H](Cc2ccc(N3CCOCC3)cc2)C(=O)N(C)[C@@H](CC(C)C)C(=O)O[C@H](C)C(=O)N(C)[C@@H](CC(C)C)C(=O)O[C@H](Cc2ccc(N3CCOCC3)cc2)C(=O)N(C)[C@@H](CC(C)C)C(=O)O[C@H](C)C(=O)N1C` [Form IV], for which the “Effectiveness (reduction of eggs per gram of faeces)” value was 0 (1 Sheep, EPG) (0 = effectiveness ≦ 50 %) with Haemonchus Contortus (dosage 0.1 mg/kg, listed as IV); 0 (1 Sheep, EPG) (0 = effectiveness ≦ 50 %) in the data set with Haemonchus Contortus (dosage 0.5 mg/kg, listed as IV); 3 (1 Sheep, EPG) (3 = effectiveness > 95%) in the data set with Haemonchus Contortus (dosage 1.0 mg/kg). In addition, the “Effectiveness (% reduction in worms, compared to the untreated control)” value with Cooperia Oncophora (dosage 1.0 mg/kg, listed as IV) is recorded as 43.09% (3 cattle, slaughter test); in the data set on Cooperia Oncophora (dosage 2.0 mg/kg), 99.15% (3 cattle, slaughter test). In data set [1] (listed as form IV), the “Thermodynamic stability (rank among the four forms)” value is on record as “thermodynamically fourth most stable form”.

For the compound `CC(C)C[C@H]1C(=O)O[C@H](Cc2ccc(N3CCOCC3)cc2)C(=O)N(C)[C@@H](CC(C)C)C(=O)O[C@H](C)C(=O)N(C)[C@@H](CC(C)C)C(=O)O[C@H](Cc2ccc(N3CCOCC3)cc2)C(=O)N(C)[C@@H](CC(C)C)C(=O)O[C@H](C)C(=O)N1C` [Form III], the “Effectiveness (reduction of eggs per gram of faeces)” value in the data set with Haemonchus Contortus (dosage 0.1 mg/kg, listed as III) was 1 (1 Sheep, EPG) (1 = effectiveness 50% to 75%); with Haemonchus Contortus (dosage 0.5 mg/kg, listed as III), 1 (1 Sheep, EPG) (1 = effectiveness 50% to 75%).

`CC(C)C[C@H]1C(=O)O[C@H](Cc2ccc(N3CCOCC3)cc2)C(=O)N(C)[C@@H](CC(C)C)C(=O)O[C@H](C)C(=O)N(C)[C@@H](CC(C)C)C(=O)O[C@H](Cc2ccc(N3CCOCC3)cc2)C(=O)N(C)[C@@H](CC(C)C)C(=O)O[C@H](C)C(=O)N1C` [Form I]: the “Effectiveness (reduction of eggs per gram of faeces)” value is 3 (1 Sheep, EPG) (3 = effectiveness > 95%) in the data set with Haemonchus Contortus (dosage 0.1 mg/kg, listed as I) and 3 (1 Sheep, EPG) (3 = effectiveness > 95%) with Haemonchus Contortus (dosage 0.5 mg/kg, listed as I). The “Effectiveness (% reduction in worms, compared to the untreated control)” value in the data set with Cooperia Oncophora (dosage 1.0 mg/kg, listed as I) is reported as 93.81% (3 cattle, slaughter test). For the same compound, the “Thermodynamic stability (rank among the four forms)” value in data set [1] (listed as form I) is on record as “thermodynamically most stable form”. Besides, in data set [2], the “Bioavailability (rank among the forms)” value is “greatest bioavailability”.

The record behind these values is patent US20040115483A1, “Crystal modification of a cyclic depsipeptide having improved strength” (priority 2001, published 2004).
